Assay results as given in ChEMBL document CHEMBL1649347, “Clerodane diterpenes from Casearia arguta that act as synergistic TRAIL sensitizers” (J Nat Prod, 2010).

Legend:
[1] = test system: ACHN; experiment: Cytotoxicity against TRAIL-resistant human ACHN cells assessed as cell killing after 20 to 24 hrs in presence of TRAIL; type: functional, cell-based
[2] = test system: ACHN; experiment: Cytotoxicity against TRAIL-resistant human ACHN cells assessed as cell killing after 20 to 24 hrs; type: functional, cell-based
[3] = test system: ACHN; experiment: Ratio of EC50 for TRAIL-resistant human ACHN cells to EC50 for TRAIL-resistant human ACHN cells in presence of TRAIL; type: functional

C=C/C(C)=C/C[C@]1(C)[C@H](C)C[C@@H](O)[C@@]23C(=C[C@H](OC(=O)/C=C\C=C\CCCCC)C[C@@H]12)[C@@H](OC(C)=O)O[C@H]3OC(C)=O [ARGUTIN A]
EC50 [1]: 2.4 µM
EC50 [2]: 5.4 µM
Ratio EC50 [3]: 2.3

C=C/C(C)=C/C[C@]1(C)[C@H](C)C[C@@H](OC(=O)/C=C/C=C/CCCCC)[C@@]23C(=C[C@H](O)C[C@@H]12)[C@@H](OC(C)=O)O[C@H]3OC(C)=O [ARGUTIN B]
EC50 [1]: 4.6 µM
EC50 [2]: 13.8 µM
Ratio EC50 [3]: 3

C=C/C(C)=C/C[C@]1(C)[C@H](C)[C@@H](O)[C@@H](O)[C@@]23C(=C[C@H](OC(=O)/C=C\C=C\CCCCC)C[C@@H]12)[C@@H](OC(C)=O)O[C@H]3OC(C)=O [ARGUTIN C]
EC50 [1]: 1.6 µM
EC50 [2]: 3.1 µM
Ratio EC50 [3]: 1.9

C=C/C(C)=C/C[C@]1(C)[C@H](C)[C@@H](O)[C@@H](OC(=O)/C=C/C=C/CCCCC)[C@@]23C(=C[C@H](O)C[C@@H]12)[C@@H](OC(C)=O)O[C@H]3OC(C)=O [ARGUTIN D]
EC50 [1]: 8.7 µM
EC50 [2]: 14.3 µM
Ratio EC50 [3]: 1.6

C=C/C(C)=C/C[C@]1(C)[C@H](C)[C@@H](O)C[C@@]23C(=C[C@H](OC(=O)/C=C\C=C\CCCCC)C[C@@H]12)[C@@H](OC(C)=O)O[C@H]3OC(C)=O [ARGUTIN E]
EC50 [1]: 2.2 µM
EC50 [2]: 3.3 µM
Ratio EC50 [3]: 1.5

C=CC(=C)[C@@H](C[C@]1(C)[C@H](C)C[C@@H](O)[C@@]23C(=C[C@H](OC(=O)/C=C\C=C\CCCCC)C[C@@H]12)[C@@H](OC(C)=O)O[C@H]3OC(C)=O)OO [ARGUTIN F]
EC50 [1]: 7.1 µM
EC50 [2]: 10.4 µM
Ratio EC50 [3]: 1.5

C=CC(=C)[C@@H](C[C@]1(C)[C@H](C)[C@@H](O)[C@@H](O)[C@@]23C(=C[C@H](OC(=O)/C=C\C=C\CCCCC)C[C@@H]12)[C@@H](OC(C)=O)O[C@H]3OC(C)=O)OO [ARGUTIN G]
EC50 [1]: 2.8 µM
EC50 [2]: 4.2 µM
Ratio EC50 [3]: 1.5
